Values quoted from earlier work as cited in US20240108697A1, “ANTIMICROBIAL COMPOSITIONS” (Matoke Holdings Limited, priority 2020, published 2024).

How the values were obtained:
[1] = at 20° C. and 1 atm
[2] = system: Human Fibroblast Cell Migration; settings: in the presence of 30 mM glucose

Row | solubility [1] | SMILES | mobilisation of fibroblasts in a cell culture system [2]
1 | about 375 g/100 g water | O=C(CO)[C@@H](O)[C@H](O)[C@H](O)CO [Fructose] | 
2 | 90 g/100 g water | O=C[C@H](O)[C@@H](O)[C@H](O)[C@H](O)CO [Glucose] | poor mobilisations of fibroblasts
